Experimental data as given in US6677277B1, “Substituted sulphonyl amino(thio)carbonyl compounds and their use as herbicides” (Bayer Aktiengesellschaft, priority 1996, dated 2004).

How the values were obtained:
Alopecurus [1] = experiment: Pre-emergence test/greenhouse; type: in vivo; conditions: after three weeks
Description: (§1) Pre-emergence Test Solvent: 5 parts by weight of acetone Emulsifier: 1 part by weight of alkylaryl polyglycol ether To produce a suitable preparation of active compound, 1 part by weight of active compound is mixed with the stated amount of solvent, the stated amount of emulsifier is added and the concentrate is diluted with water to the desired concentration. Seeds of the test plants are sown in normal soil. After about 24 hours, the soil is sprayed with the preparation of the active compound in such a way as to apply the particular amounts of active compound desired per unit area The concentration of the spray liquor is chosen so that the particular amounts of active compound desired are applied in 1000 l of water/ha. After three weeks, the degree of damage to the plants is rated in % damage in comparison to the development of the untreated control. The figures denote: [table]

Amaranthus [2] = experiment: Pre-emergence test/greenhouse; type: in vivo; conditions: after three weeks
Description: as §1

Bromus = experiment: Pre-emergence test/greenhouse; type: in vivo; conditions: 125 g ai./ha, after three weeks
Description: as §1

Chenopodium = experiment: Pre-emergence test/greenhouse; type: in vivo; conditions: after three weeks
Description: as §1

Cotton = experiment: Pre-emergence test/greenhouse; type: in vivo; conditions: 125 g ai./ha, after three weeks
Description: as §1

Echinochloa = experiment: Pre-emergence test/greenhouse; type: in vivo; conditions: 125 g ai./ha, after three weeks
Description: as §1

Veronica = experiment: Pre-emergence test/greenhouse; type: in vivo; conditions: after three weeks
Description: as §1

Wheat [3] = experiment: Pre-emergence test/greenhouse; type: in vivo; conditions: after three weeks
Description: as §1

weeds [4] = experiment: Pre-emergence test; type: in vivo; conditions: cf. Tables A-1 to A-5
Description: as §1

Amaranthus [5] = experiment: Post-emergence test/greenhouse; type: in vivo; conditions: post-emergence, after three weeks
Description: as §1, with “Post-emergence” for “Pre-emergence”, “Test plants which have a height” for “Seeds”, “5-15 cm” for “the test plants”, “are” for “are sown in normal soil. After about 24 hours, the soil is”, “area.” for “area”

Matricaria [6] = experiment: Post-emergence test/greenhouse; type: in vivo; conditions: after three weeks
Description: as §1, with “Post-emergence” for “Pre-emergence”, “Test plants which have a height” for “Seeds”, “5-15 cm” for “the test plants”, “are” for “are sown in normal soil. After about 24 hours, the soil is”, “area.” for “area”

Solanum [7] = experiment: Post-emergence test/greenhouse; type: in vivo; conditions: post-emergence, after three weeks
Description: as §1, with “Post-emergence” for “Pre-emergence”, “Test plants which have a height” for “Seeds”, “5-15 cm” for “the test plants”, “are” for “are sown in normal soil. After about 24 hours, the soil is”, “area.” for “area”

Wheat [8] = experiment: Post-emergence test/greenhouse; type: in vivo; conditions: after three weeks
Description: as §1, with “Post-emergence” for “Pre-emergence”, “Test plants which have a height” for “Seeds”, “5-15 cm” for “the test plants”, “are” for “are sown in normal soil. After about 24 hours, the soil is”, “area.” for “area”

Xanthium = experiment: Post-emergence test/greenhouse; type: in vivo; conditions: post-emergence, after three weeks
Description: as §1, with “Post-emergence” for “Pre-emergence”, “Test plants which have a height” for “Seeds”, “5-15 cm” for “the test plants”, “are” for “are sown in normal soil. After about 24 hours, the soil is”, “area.” for “area”

weeds [9] = experiment: Post-emergence test; type: in vivo; conditions: cf. Tables B-1 to B-4
Description: as §1, with “Post-emergence” for “Pre-emergence”, “Test plants which have a height” for “Seeds”, “5-15 cm” for “the test plants”, “are” for “are sown in normal soil. After about 24 hours, the soil is”, “area.” for “area”

Lolium [10] = experiment: Pre-emergence test/greenhouse; type: in vivo; conditions: after three weeks
Description: as §1

Maize = experiment: Pre-emergence test/greenhouse; type: in vivo; conditions: 125 g ai./ha, after three weeks
Description: as §1

Matricaria [11] = experiment: Pre-emergence test/greenhouse; type: in vivo; conditions: 125 g ai./ha, after three weeks
Description: as §1

Solanum [12] = experiment: Pre-emergence test/greenhouse; type: in vivo; conditions: after three weeks
Description: as §1

Sorghum [13] = experiment: Pre-emergence test/greenhouse; type: in vivo; conditions: after three weeks
Description: as §1

Soya beans = experiment: Pre-emergence test/greenhouse; type: in vivo; conditions: 125 g ai./ha, after three weeks
Description: as §1

[14] = log P n-octanol/water by the HPLC method; type: physicochemical; conditions: at pH 2, eluent acetonitrile containing 1% of H3PO4
Viola = experiment: Pre-emergence test/greenhouse; type: in vivo; conditions: 125 g ai./ha, after three weeks
Description: as §1

Alopecurus [15] = experiment: Post-emergence test/greenhouse; type: in vivo; conditions: 60 g ai./ha, after three weeks
Description: as §1, with “Post-emergence” for “Pre-emergence”, “Test plants which have a height” for “Seeds”, “5-15 cm” for “the test plants”, “are” for “are sown in normal soil. After about 24 hours, the soil is”, “area.” for “area”

Ipomoea = experiment: Post-emergence test/greenhouse; type: in vivo; conditions: 60 g ai./ha, after three weeks
Description: as §1, with “Post-emergence” for “Pre-emergence”, “Test plants which have a height” for “Seeds”, “5-15 cm” for “the test plants”, “are” for “are sown in normal soil. After about 24 hours, the soil is”, “area.” for “area”

Lolium [16] = experiment: Post-emergence test/greenhouse; type: in vivo; conditions: 60 g ai./ha, after three weeks
Description: as §1, with “Post-emergence” for “Pre-emergence”, “Test plants which have a height” for “Seeds”, “5-15 cm” for “the test plants”, “are” for “are sown in normal soil. After about 24 hours, the soil is”, “area.” for “area”

Sorghum [17] = experiment: Post-emergence test/greenhouse; type: in vivo; conditions: post-emergence, 60 g ai./ha, after three weeks
Description: as §1, with “Post-emergence” for “Pre-emergence”, “Test plants which have a height” for “Seeds”, “5-15 cm” for “the test plants”, “are” for “are sown in normal soil. After about 24 hours, the soil is”, “area.” for “area”

Stellaria = experiment: Post-emergence test/greenhouse; type: in vivo; conditions: 60 g ai./ha, after three weeks
Description: as §1, with “Post-emergence” for “Pre-emergence”, “Test plants which have a height” for “Seeds”, “5-15 cm” for “the test plants”, “are” for “are sown in normal soil. After about 24 hours, the soil is”, “area.” for “area”

## CCOc1nn(C(=O)NS(=O)(=O)c2c(SC(C)(C)C)cccc2C(F)(F)F)c(=O)n1C [Example 60]
Alopecurus [1]; 125 g ai./ha
  % damage, Alopecurus: 90%
Amaranthus [2]; 125 g ai./ha
  % damage, Amaranthus: 100%
Bromus
  % damage, Bromus: 95%
Chenopodium; 125 g ai./ha
  % damage, Chenopodium: 100%
Cotton
  % damage, Cotton: 20%
Echinochloa
  % damage, Echinochloa: 100%
Veronica; 125 g ai./ha
  % damage, Veronica: 100%
Wheat [3]; 125 g ai./ha
  % damage, Wheat: 0%
Weeds [4]
  activity against weeds: very strong activity

## CCSc1cccc(C)c1S(=O)(=O)NC(=O)n1nc(CC)n(C)c1=O [Example 55]
Amaranthus [5]; 60 g ai./ha
  % damage, Amaranthus: 95%
Matricaria [6]; 60 g ai./ha
  % damage, Matricaria: 95%
Solanum [7]; 60 g ai./ha
  % damage, Solanum: 90%
Wheat [8]; 60 g ai./ha
  % damage, Wheat: 20%
Xanthium; 60 g ai./ha
  % damage, Xanthium: 100%
Weeds [9]
  activity against weeds: very strong activity

## CCOc1nn(C(=O)NS(=O)(=O)c2c(OC(F)(F)F)cccc2SC(C)C)c(=O)n1C [Example 25]
Alopecurus [1]; 125 g ai./ha
  % damage, Alopecurus: 100%
Amaranthus [2]; 125 g ai./ha
  % damage, Amaranthus: 95%
Chenopodium; 125 g ai./ha
  % damage, Chenopodium: 100%
Lolium [10]; 125 g ai./ha
  % damage, Lolium: 70%
Maize
  % damage, Maize: 0%
Matricaria [11]
  % damage, Matricaria: 95%
Solanum [12]; 125 g ai./ha
  % damage, Solanum: 100%
Sorghum [13]; 125 g ai./ha
  % damage, Sorghum: 80%
Soya beans
  % damage, Soya beans: 20%
Weeds [4]
  activity against weeds: very strong activity

## COc1nn(C(=O)NS(=O)(=O)c2c(SCC(F)F)cccc2C(F)(F)F)c(=O)n1C [Example 99]
[14]
  log P: (log P = 2.59)

## CSc1cccc(SC)c1S(=O)(=O)NC(=O)n1nc(SC)n(C)c1=O [Example 51]
Amaranthus [5]; 125 g ai./ha
  % damage, Amaranthus: 95%
Matricaria [6]; 125 g ai./ha
  % damage, Matricaria: 95%
Solanum [7]; 125 g ai./ha
  % damage, Solanum: 95%
Wheat [8]; 125 g ai./ha
  % damage, Wheat: 20%
Xanthium; 125 g ai./ha
  % damage, Xanthium: 95%
Weeds [9]
  activity against weeds: very strong activity

## COc1cccc(SC(C)C)c1S(=O)(=O)NC(=O)n1nc(OC)n(C)c1=O [Example 24]
Alopecurus [1]; 125 g ai./ha
  % damage, Alopecurus: 95%
Amaranthus [2]; 125 g ai./ha
  % damage, Amaranthus: 100%
Chenopodium; 125 g ai./ha
  % damage, Chenopodium: 100%
Cotton
  % damage, Cotton: 0%
Maize
  % damage, Maize: 0%
Matricaria [11]
  % damage, Matricaria: 70%
Sorghum [13]; 125 g ai./ha
  % damage, Sorghum: 70%
Viola
  % damage, Viola: 100%
Weeds [4]
  activity against weeds: very strong activity
Alopecurus [15]
  % damage, Alopecurus: 90%
Ipomoea
  % damage, Ipomoea: 90%
Lolium [16]
  % damage, Lolium: 60%
Solanum [7]; 60 g ai./ha
  % damage, Solanum: 95%
Sorghum [17]
  % damage, Sorghum: 90%
Stellaria
  % damage, Stellaria: 95%
Wheat [8]; 60 g ai./ha
  % damage, Wheat: 15%
Weeds [9]
  activity against weeds: very strong activity

## CCOc1nn(C(=O)NS(=O)(=O)c2c(OC(F)(F)F)cccc2SC)c(=O)n1C [Example 35]
Alopecurus [1]; 60 g ai./ha
  % damage, Alopecurus: 100%
Amaranthus [2]; 60 g ai./ha
  % damage, Amaranthus: 100%
Chenopodium; 60 g ai./ha
  % damage, Chenopodium: 100%
Lolium [10]; 60 g ai./ha
  % damage, Lolium: 95%
Solanum [12]; 60 g ai./ha
  % damage, Solanum: 95%
Sorghum [13]; 60 g ai./ha
  % damage, Sorghum: 90%
Veronica; 60 g ai./ha
  % damage, Veronica: 100%
Wheat [3]; 60 g ai./ha
  % damage, Wheat: 10%
Weeds [4]
  activity against weeds: very strong activity

## COc1nn(C(=O)NS(=O)(=O)c2c(SCC(F)F)cccc2C(F)(F)F)c(=O)n1C1CC1 [Example 100]
[14]
  log P: (log P = 2.96)
